Measured values reported in US9567629B2, “Labeled enzyme compositions, methods and systems” (LIFE TECHNOLOGIES CORPORATION, priority 2009, dated 2017).

Key:
[1] = system: dye-labeled primer-template duplex with AF647-C6-dG6P; test: Stopped-flow measurements of tpol (nucleotide incorporation kinetics); assay type: biochemical; details: 330 nM polymerase, 100 nM template/primer duplex, 7 μM AF647-C6-dG6P, 2 mM MnCl2
Protocol: In this example, the t−1 and tpol values of a Phi-29 polymerase comprising the amino acid sequence of SEQ ID NO: 3 and a B103 polymerase comprising the amino acid sequence of SEQ ID NO: 34 (referred to as “mB103” in the table below) and including amino acid substitutions at various positions were measured using a stopped-flow procedure. The stopped-flow techniques for measuring tpol (1/kpol) followed the techniques described by MP Roettger (2008 Biochemistry 47:9718-9727; M. Bakhtina 2009 Biochemistry 48:3197-320).
The template sequence (SEQ ID NO: 44) further included an Alexa Fluor 546 dye moiety bonded to the 5′ position of the template.
The kinetics of nucleotide incorporation by each polymerase was measured in an Applied Photophysics SX20 stopped-flow spectrometer by monitoring changes in fluorescence from the dye-labeled primer-template duplex complexed to enzyme, following the mixing of the enzyme-DNA complex with dye-labeled nucleotides. […]
The primer and template were annealed to form a dye-labeled primer-template duplex using standard methods. […] The dye-labeled nucleotide AF647-C6-dG6P was then added to a final concentration of 7 μM, and the resulting fluorescence was monitored over time. […]

[2] = system: [enzyme•DNA•nucleotide] ternary complex with AF647-C6-dG6P; test: Stopped-flow measurements of t−1 (nucleotide dissociation from ternary complex); assay type: biochemical; details: 330 nM polymerase, 100 nM duplex, 7 μM AF647-C6-dG6P, chase 50 μM non-labeled dNTP, 2 mM MnCl2
Protocol: The stopped-flow techniques for measuring t−1 (1/k−1) followed the techniques described by M. Bakhtina (2009 Biochemistry 48:3197-3208).
The rate of the nucleotide dissociation (k1) from the ternary complex of [enzyme•DNA•nucleotide] was measured in an Applied Photophysics SX20 stopped-flow spectrometer by monitoring changes […] a duplex Alexa fluor 546 dye-labeled-DNA template following the mixing of the [enzyme•DNA•labeled nucleotide] ternary complex with 50 μM cognate non-labeled deoxynucleoside triphosphate in a buffer containing 50 mM Tris-HCl (pH 7.5), 50 mM NaCl, 4 mM DTT, 0.2% BSA, and 2 mM MnCl2.
The ternary complexes were prepared using: 330 nM polymerase, 100 nM template/primer duplex, and 7 μM terminal phosphate-labeled nucleotides (AF647-C6-dG6P).
The averaged stopped-flow fluorescence traces (>1.5 msec) were fitted with a single exponential equation (2) to extrapolate the rate of the nucleotide dissociation (k−1) from the [enzyme•DNA•nucleotide] ternary complex. Fluorescence=A1*e^−k−1*t+C (equation 2) where A1 represents the corresponding fluorescence amplitude, C is an offset constant, and k−1 and the observed rate constants for the fluorescence transition.

- t−1 [2]: 27
Substance: Phi-29 (exo−): exonuclease-minus Phi-29 polymerase (Phi-29 polymerase comprising SEQ ID NO: 3) [reference compound]
- tpol [1]: 11
